From patent publication US12023334B2, “Composition including rilpivirine and method for treating tumors or cancer” (APTORUM THERAPEUTICS LIMITED, priority 2019, dated 2024)

Assays:
[1] = system: A-375 melanoma; details: animal experiments (Oncogene 24:3923-3931, 2005); cited from earlier work
[2] = system: PC3 prostate cancer cell lines; details: animal experiments (Oncogene 24:3923-3931, 2005); cited from earlier work
[3] = system: pancreatic cancer cells; details: in vitro (PloS ONE 10(6):e0130277, 2015); cited from earlier work
[4] = system: U87 glioblastoma cells; details: Journal of Cancer 9(1):117-128, 2018; cited from earlier work
[5] = system: IMR-32 cell line; test: MTT cell proliferation assay, IMR-32; type: cell-based, human
Protocol: (§1) In the present invention, the IC50 concentrations required to inhibit the activity of IMR-32 cell line and other neuroblastoma cell lines were determined for rilpivirine and other chemotherapeutic agents, and presented on the two-coordinate plot with x- and y-axes, forming the two points (IC50, rilpivirine, 0) and (0, IC50, chemotherapeutic agents). […] Moreover, the concentration or ratios of rilpivirine in combination with chemotherapeutic agents which provide the same inhibition effect are denoted as point (Crilpivirine, 50, Cchemotherapeutic agents, 50) in the same plot.
(§2) The combination index provides a quantitative measurement of the drug-drug interaction at the given effect level. The combination index (CI) is calculated by following equation: […]
(§3) The IMR-32, SK-N-SH, SH-SY5Y and SK-N-BE(2) tumor cell lines were purchased from American Type Culture Collection (ATCC, Manassas, VA). […] The cells were incubated for 72 hours and then cell proliferation was measured by 3-(4,5-dimethyl-2-thiazolyl)-2,5-diphenyl-2H-tetrazolium bromide (MTT) colorimetric assays (Sigma-Aldrich, Inc., St. Louis, MO). […] Absorbance of each well was measured with a spectrophotometer (uQuant SpectroMAX Gemini Dual-scanning microplate spectro, Bio-tek Instrument Inc.) at 550 nm. Growth inhibition was expressed as the ratio of the mean absorbance of treated cells relative to that of the control.

[6] = system: SK-N-BE(2) cell line; test: MTT cell proliferation assay, SK-N-BE(2); type: cell-based
Protocol: as §1, §2, §3

[7] = system: SK-N-SH cell line; test: MTT cell proliferation assay, SK-N-SH; type: cell-based
Protocol: as §1, §2, §3

[8] = system: SH-SY5Y cell line; test: MTT cell proliferation assay, SH-SY5Y; type: cell-based
Protocol: as §1, §2, §3

[9] = system: MOLT-16; test: EC50 in cancer cell line, rilpivirine alone; type: cell-based; details: Homo sapiens, Acute lymphoblastic leukemia
[10] = system: Jurkat; test: EC50 in cancer cell line, rilpivirine alone; type: cell-based; details: Homo sapiens, Acute lymphoblastic leukemia
[11] = system: MOLT-4; test: EC50 in cancer cell line, rilpivirine alone; type: cell-based; details: Homo sapiens, Acute lymphoblastic leukemia
[12] = system: CEM-C2; test: EC50 in cancer cell line, rilpivirine alone; type: cell-based; details: Homo sapiens, Acute lymphoblastic leukemia
[13] = system: Thp1; test: EC50 in cancer cell line, rilpivirine alone; type: cell-based; details: Homo sapiens, THP-1, Acute monocytic leukemia
[14] = system: J-RT3-T3-5; test: EC50 in cancer cell line, rilpivirine alone; type: cell-based; details: Homo sapiens, Acute T-cell leukemia
[15] = system: MV-4-11; test: EC50 in cancer cell line, rilpivirine alone; type: cell-based; details: Homo sapiens, MV4-11, Biphenotypic B myelomonocytic leukemia
[16] = system: SU-DHL-4; test: EC50 in cancer cell line, rilpivirine alone; type: cell-based; details: Homo sapiens, B-cell non-Hodgkin lymphoma
[17] = system: BV-173; test: EC50 in cancer cell line, rilpivirine alone; type: cell-based; details: Homo sapiens, B-cell precursor leukemia (CML)
[18] = system: 647-V; test: EC50 in cancer cell line, rilpivirine alone; type: cell-based; details: Homo sapiens, Bladder
[19] = system: T47D; test: EC50 in cancer cell line, rilpivirine alone; type: cell-based; details: Homo sapiens, Breast
[20] = system: Daudi; test: EC50 in cancer cell line, rilpivirine alone; type: cell-based; details: Homo sapiens, Burkitt's lymphoma
[21] = system: EB2; test: EC50 in cancer cell line, rilpivirine alone; type: cell-based; details: Homo sapiens, Burkitt's lymphoma
[22] = system: GA-10; test: EC50 in cancer cell line, rilpivirine alone; type: cell-based; details: Homo sapiens, Burkitt's lymphoma
[23] = system: ST486; test: EC50 in cancer cell line, rilpivirine alone; type: cell-based; details: Homo sapiens, Burkitt's lymphoma
[24] = system: DOHH-2; test: EC50 in cancer cell line, rilpivirine alone; type: cell-based; details: Homo sapiens, B-cell lymphoma
[25] = system: EM-2; test: EC50 in cancer cell line, rilpivirine alone; type: cell-based; details: Homo sapiens, Chronic myelogenous leukemia
[26] = system: KU812; test: EC50 in cancer cell line, rilpivirine alone; type: cell-based; details: Homo sapiens, Chronic myelogenous leukemia
[27] = system: RKO-AS45-1; test: EC50 in cancer cell line, rilpivirine alone; type: cell-based; details: RKOAS451, Colon
[28] = system: HuTu80; test: EC50 in cancer cell line, rilpivirine alone; type: cell-based; details: Homo sapiens, Duodenum
[29] = system: TF-1; test: EC50 in cancer cell line, rilpivirine alone; type: cell-based; details: Homo sapiens, Erythroleukemia
[30] = system: U-87 MG; test: EC50 in cancer cell line, rilpivirine alone; type: cell-based; details: Homo sapiens, Glioblastoma/malignant glioma
[31] = system: TUR; test: EC50 in cancer cell line, rilpivirine alone; type: cell-based; details: Histiocytic lymphoma
[32] = system: U-937; test: EC50 in cancer cell line, rilpivirine alone; type: cell-based; details: Homo sapiens, Histiocytic lymphoma
[33] = system: Caki-2; test: EC50 in cancer cell line, rilpivirine alone; type: cell-based; details: Homo sapiens, Kidney
[34] = system: SU-DHL-8; test: EC50 in cancer cell line, rilpivirine alone; type: cell-based; details: Homo sapiens, Large cell lymphoma
[35] = system: SR; test: EC50 in cancer cell line, rilpivirine alone; type: cell-based; details: Homo sapiens, Large cell immunoblastic lymphoma
[36] = system: HUH-6; test: EC50 in cancer cell line, rilpivirine alone; type: cell-based; details: Homo sapiens, Liver
[37] = system: JVM-2; test: EC50 in cancer cell line, rilpivirine alone; type: cell-based; details: Homo sapiens, Mantle cell lymphoma
[38] = system: D283Med; test: EC50 in cancer cell line, rilpivirine alone; type: cell-based; details: Homo sapiens, D283 Med, Medulloblastoma
[39] = system: HMCB; test: EC50 in cancer cell line, rilpivirine alone; type: cell-based; details: Homo sapiens, Melanoma
[40] = system: IM-9; test: EC50 in cancer cell line, rilpivirine alone; type: cell-based; details: Homo sapiens, Multiple myeloma
[41] = system: COR-L105; test: EC50 in cancer cell line, rilpivirine alone; type: cell-based; details: Homo sapiens, NSCLC
[42] = system: CHP-212; test: EC50 in cancer cell line, rilpivirine alone; type: cell-based; details: Homo sapiens, Neuroblastoma
[43] = system: SK-N-AS; test: EC50 in cancer cell line, rilpivirine alone; type: cell-based; details: Homo sapiens, Neuroblastoma
[44] = system: BxPC-3; test: EC50 in cancer cell line, rilpivirine alone; type: cell-based; details: Homo sapiens, Pancreas
[45] = system: PANC-1; test: EC50 in cancer cell line, rilpivirine alone; type: cell-based; details: Homo sapiens, Pancreas
[46] = system: PC-3; test: EC50 in cancer cell line, rilpivirine alone; type: cell-based; details: Homo sapiens, Prostate
[47] = system: DMS273; test: EC50 in cancer cell line, rilpivirine alone; type: cell-based; details: Homo sapiens, DMS-273, SCLC
[48] = system: SNU-16; test: EC50 in cancer cell line, rilpivirine alone; type: cell-based; details: Homo sapiens, Stomach
[49] = system: MES-SA; test: EC50 in cancer cell line, rilpivirine alone; type: cell-based; details: Homo sapiens, Uterine sarcoma
[50] = system: cleaved poly (ADP-ribose) polymerase (PARP) and phosphor-histone H2A.X (p-H2A.X); test: Expression of cleaved PARP and p-H2A.X in SK-N-SH; type: cell-based; details: increasing rilpivirine 0.12, 0.37, 1.11, 3.3, and 10 μM
[51] = system: cleaved poly (ADP-ribose) polymerase (PARP) and phosphor-histone H2A.X (p-H2A.X); test: Expression of cleaved PARP and p-H2A.X in SK-N-BE(2); type: cell-based; details: increasing rilpivirine 0.12, 0.37, 1.11, 3.3, and 10 μM
[52] = system: cleaved poly (ADP-ribose) polymerase (PARP) and phosphor-histone H2A.X (p-H2A.X); test: Expression of cleaved PARP and p-H2A.X in SH-SY5Y; type: cell-based; details: increasing rilpivirine 0.12, 0.37, 1.11, 3.3, and 10 μM
[53] = system: IMR-32 tumor; test: Xenograft mouse model of neuroblastoma, tumor volume; type: in vivo, female BALB/c nude mice; details: rilpivirine 400 mg/kg once daily for 21 consecutive days, oral; p<0.05
Protocol: (§4) This study employed female BALB/c nude mice, aged 4-5 weeks, obtained from BioLasco Taiwan (under Charles River Laboratories Licensee). The animals were housed in individually ventilated cages (IVC, 36 Mini Isolator system). The allocation for 4 animals was 27×20×14 in cm. All the animals were maintained in a hygienic environment under controlled temperature (20-24° C.) and humidity (30%-70%) with 12-hour light/dark cycle. Free access to standard lab diet [MFG (Oriental Yeast Co., Ltd., Japan)] and autoclaved tap water were granted. All aspects of this work including housing, experimentation, and animal disposal were performed in general accordance with the “Guide for the Care and Use of Laboratory Animals: Eighth Edition” (National Academies Press, Washington, D.C., 2011) in our AAALAC-accredited laboratory animal facility. In addition, the animal care and use protocol was reviewed and approved by the IACUC at Pharmacology Discovery Services, Taiwan.
The IMR-32 tumor cell line was purchased from American Type Culture Collection (ATCC CCL-127, neuroblastoma) and cultured in Pharmacology Discovery Services, Taiwan. The cells were cultured in MEM medium containing 10% fetal bovine serum (FBS), 1 mM sodium pyruvate and 1 mM NEAA at 37° C. in 5% CO2 incubator. […] The tumor volume, body weight, mortality, and signs of overt toxicity were monitored and recorded twice weekly for 28 days. […]

[54] = Xenograft mouse model, body weight and signs of overt toxicity; type: in vivo, female BALB/c nude mice; details: rilpivirine 400 mg/kg once daily for 21 consecutive days, oral
Protocol: as §4
The IMR-32 tumor cell line was purchased from American Type Culture Collection (ATCC CCL-127, neuroblastoma) and cultured in Pharmacology Discovery Services, Taiwan. The cells were cultured in MEM medium containing 10% fetal bovine serum (FBS), 1 mM sodium pyruvate and 1 mM NEAA at 37° C. in 5% CO2 incubator. Female BALB/c nude mice were used as described in the preceding section. Viable IMR-32 cells (ATCC CCL-127) were subcutaneously (SC) implanted (1×10^7 cells in 1:1 matrigel/complete media mixture at 0.2 mL/mouse) into the right flank of female BALB/c nude mice. Forty-one days post tumor cell implantation (group mean tumor volumes ranging 128 mm^3-130 mm^3), all the animals were randomized into sixteen study groups, each containing eight animals, and dose administrations were initiated (denoted as Day 1). All the experiments were conducted using protocols and conditions approved by the institutional animal care and use committee. The tumor volume, body weight, mortality, and signs of overt toxicity were monitored and recorded twice weekly for 28 days.

[55] = Homo sapiens, rilpivirine alone, 72 hours

O=C1Nc2ccc(Cl)cc2[C@@](C#CC2CC2)(C(F)(F)F)O1 [efavirenz]
tumorigenic growth of A-375 melanoma [1]: antagonize tumorigenic growth
tumorigenic growth of PC3 prostate cancer cell lines [2]: antagonize tumorigenic growth
toxic potential against pancreatic cancer cells [3]: high toxic potential

Cc1cc(C)c(Nc2ccnc(Nc3ccc(C#N)cc3)n2)c(C)c1 [Dapivirine]
tumor growth of U87 glioblastoma cells [4]: inhibit tumor growth

Cc1ccnc2c1NC(=O)c1cccnc1N2C1CC1 [nevirapine]
tumorigenic growth of A-375 melanoma [1]: antagonize tumorigenic growth
tumorigenic growth of PC3 prostate cancer cell lines [2]: antagonize tumorigenic growth

Cc1cc(/C=C/C#N)cc(C)c1Nc1ccnc(Nc2ccc(C#N)cc2)n1 [rilpivirine]
growth of neuroblastoma cell line IMR-32 ([5]; 5 μM rilpivirine treatment for 24 hours): significantly inhibited
IC50 ([5]; Homo sapiens, IMR-32, rilpivirine alone, 72 hours): 2.97 µM
growth of neuroblastoma cell line under rilpivirine treatment [6]: successfully inhibited
IC50 ([6]; Homo sapiens, SKNBE2, rilpivirine alone, 72 hours): 3.37 µM
growth of neuroblastoma cell line under rilpivirine treatment [7]: successfully inhibited
IC50 [7, 55]: 2.75 µM
growth of neuroblastoma cell line under rilpivirine treatment [8]: successfully inhibited
IC50 [8, 55]: 3.12 µM
EC50 [9]: 3.38 µM
EC50 [10]: 3.68 µM
EC50 [11]: 3.75 µM
EC50 [12]: 4.04 µM
EC50 [13]: 4.29 µM
EC50 [14]: 4.04 µM
EC50 [15]: 4.88 µM
EC50 [16]: 4.29 µM
EC50 [17]: 3.69 µM
EC50 [18]: 12.3 µM
EC50 [19]: 3.23 µM
EC50 [20]: 4.01 µM
EC50 [21]: 4.81 µM
EC50 [22]: 3.7 µM
EC50 [23]: 3.76 µM
EC50 [24]: 4.45 µM
EC50 [25]: 3.96 µM
EC50 [26]: 4.09 µM
EC50 [27]: 4.4 µM
EC50 [28]: 3.59 µM
EC50 [29]: 3.76 µM
EC50 [30]: 14.4 µM
EC50 [31]: 2.08 µM
EC50 [32]: 3.37 µM
EC50 [33]: 4.05 µM
EC50 [34]: 4.19 µM
EC50 [35]: 3.78 µM
EC50 [36]: 2.41 µM
EC50 [37]: 2.74 µM
EC50 [38]: 3.54 µM
EC50 [39]: 3.49 µM
EC50 [40]: 4.13 µM
EC50 [41]: 3.11 µM
EC50 [42]: 3.26 µM
EC50 [43]: 4.84 µM
EC50 [44]: 11.3 µM
EC50 [45]: 8.27 µM
EC50 [46]: 6.23 µM
EC50 [47]: 4.96 µM
EC50 [48]: 4.23 µM
EC50 [49]: 4.91 µM
expression of cleaved PARP and p-H2A.X [50]: increased gradually
expression of cleaved PARP and p-H2A.X [51]: increased gradually
expression of cleaved PARP and p-H2A.X [52]: increased gradually
tumor growth compared to negative control group (vehicle) [53]: significantly inhibited
body weight loss [54]: not associated with body weight loss
overt toxicities [54]: no overt toxicities were observed
tolerability [54]: well tolerated
toxic potential against pancreatic cancer cells [3]: high toxic potential
